In PMC9136306 (The Journal of General Physiology, 2022):
Several values for one entry are separate records, joined by “and”; a condition that tells them apart may be missing. Identical values can stand only once.

Legend:
human α7-AChR = human α7-AChR (Homo sapiens, UniProt P36544); assay: cell-based; format: binding; details: for IC50: Unlabeled-ligand half-competition concentration
[1] = target: T1, Human–C. elegans α7-AChR–β-GluCl chimera S56T + S172T (Homo sapiens, UniProt P36544, S172T/S56T)
[2] = target: T1, Human–C. elegans α7-AChR–β-GluCl chimera S56T + S172T; assay: biochemical; details: Unlabeled-ligand half-competition concentration
[3] = target: Human–C. elegans α7-AChR–β-GluCl ECD–TMD chimera (UniProt P36544+Q17328); assay: cell-based; format: binding
[4] = target: Chicken–C. elegans α7-AChR–β-GluCl ECD–TMD chimera (UniProt P22770+Q17328); assay: cell-based; format: binding
Chicken–C. elegans α7-AChR–β-GluCl ECD–TMD chimera, sequence (P22770 whole entry, looked up, change not shown, the tested form may be a part): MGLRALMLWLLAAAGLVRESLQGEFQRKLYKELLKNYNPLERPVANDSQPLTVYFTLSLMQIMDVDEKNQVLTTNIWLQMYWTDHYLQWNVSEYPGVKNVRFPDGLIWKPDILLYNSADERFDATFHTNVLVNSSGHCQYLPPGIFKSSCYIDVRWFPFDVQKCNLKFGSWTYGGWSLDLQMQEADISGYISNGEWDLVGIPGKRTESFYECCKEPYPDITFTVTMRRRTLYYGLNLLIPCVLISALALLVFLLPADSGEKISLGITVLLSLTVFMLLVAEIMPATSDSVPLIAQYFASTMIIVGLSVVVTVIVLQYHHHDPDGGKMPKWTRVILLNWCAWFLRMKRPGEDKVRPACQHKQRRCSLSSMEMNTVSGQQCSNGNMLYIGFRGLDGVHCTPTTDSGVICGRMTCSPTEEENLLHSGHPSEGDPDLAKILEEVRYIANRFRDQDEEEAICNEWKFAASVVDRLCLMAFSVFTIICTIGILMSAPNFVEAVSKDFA
Chicken–C. elegans α7-AChR–β-GluCl ECD–TMD chimera, sequence (Q17328 whole entry, looked up, change not shown, the tested form may be a part): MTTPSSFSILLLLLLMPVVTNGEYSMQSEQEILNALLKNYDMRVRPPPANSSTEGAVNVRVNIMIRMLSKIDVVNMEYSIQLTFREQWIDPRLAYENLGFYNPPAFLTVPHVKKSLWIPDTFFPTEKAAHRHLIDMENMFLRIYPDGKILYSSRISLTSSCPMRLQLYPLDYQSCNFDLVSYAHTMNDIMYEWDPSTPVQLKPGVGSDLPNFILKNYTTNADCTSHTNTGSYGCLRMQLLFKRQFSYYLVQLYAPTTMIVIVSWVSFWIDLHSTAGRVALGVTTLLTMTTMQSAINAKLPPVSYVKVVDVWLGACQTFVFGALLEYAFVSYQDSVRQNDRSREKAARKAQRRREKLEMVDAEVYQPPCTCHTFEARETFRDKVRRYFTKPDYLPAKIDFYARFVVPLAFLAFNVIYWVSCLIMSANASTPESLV

human α7-AChR, sequence (P36544 23-502): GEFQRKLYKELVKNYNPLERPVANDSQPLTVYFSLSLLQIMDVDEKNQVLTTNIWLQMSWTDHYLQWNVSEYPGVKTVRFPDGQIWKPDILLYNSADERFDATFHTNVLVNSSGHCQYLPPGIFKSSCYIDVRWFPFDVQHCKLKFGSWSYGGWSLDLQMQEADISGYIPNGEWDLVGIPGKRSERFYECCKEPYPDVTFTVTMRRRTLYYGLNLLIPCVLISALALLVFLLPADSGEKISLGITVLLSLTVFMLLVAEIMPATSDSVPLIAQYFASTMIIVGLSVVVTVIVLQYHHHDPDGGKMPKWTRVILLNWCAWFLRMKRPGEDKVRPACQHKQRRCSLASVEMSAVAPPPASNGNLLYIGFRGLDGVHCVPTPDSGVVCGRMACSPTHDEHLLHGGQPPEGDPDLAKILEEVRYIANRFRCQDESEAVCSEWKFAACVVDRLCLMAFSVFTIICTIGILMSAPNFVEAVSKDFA
T1 sequence (Q17328 245-434): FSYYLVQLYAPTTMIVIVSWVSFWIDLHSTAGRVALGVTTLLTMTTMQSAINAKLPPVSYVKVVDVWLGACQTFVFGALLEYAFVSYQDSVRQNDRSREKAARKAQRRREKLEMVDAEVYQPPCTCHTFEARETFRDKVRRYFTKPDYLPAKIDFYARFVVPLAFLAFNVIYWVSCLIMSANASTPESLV
T1 sequence (P36544 23-230 S56T/S172T): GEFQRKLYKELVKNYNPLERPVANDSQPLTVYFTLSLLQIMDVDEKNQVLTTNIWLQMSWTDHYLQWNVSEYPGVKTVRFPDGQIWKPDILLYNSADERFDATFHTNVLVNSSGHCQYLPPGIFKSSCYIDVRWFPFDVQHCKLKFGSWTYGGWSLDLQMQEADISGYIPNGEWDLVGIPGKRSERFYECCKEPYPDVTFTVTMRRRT
Human–C. elegans α7-AChR–β-GluCl ECD–TMD chimera, sequence (P36544 whole entry, looked up, change not shown, the tested form may be a part): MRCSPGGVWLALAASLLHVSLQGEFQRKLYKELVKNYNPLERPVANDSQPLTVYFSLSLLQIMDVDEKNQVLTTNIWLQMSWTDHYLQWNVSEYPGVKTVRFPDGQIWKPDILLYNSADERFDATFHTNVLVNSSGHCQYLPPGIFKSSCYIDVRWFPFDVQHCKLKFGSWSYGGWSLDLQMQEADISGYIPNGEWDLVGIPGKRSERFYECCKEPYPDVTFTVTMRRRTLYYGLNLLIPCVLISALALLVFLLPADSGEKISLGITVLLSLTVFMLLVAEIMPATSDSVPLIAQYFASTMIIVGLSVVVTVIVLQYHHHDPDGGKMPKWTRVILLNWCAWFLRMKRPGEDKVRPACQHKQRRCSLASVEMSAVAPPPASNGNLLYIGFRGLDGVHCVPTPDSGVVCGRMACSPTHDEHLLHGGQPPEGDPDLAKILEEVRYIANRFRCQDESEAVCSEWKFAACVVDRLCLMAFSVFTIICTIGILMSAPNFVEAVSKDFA
Human–C. elegans α7-AChR–β-GluCl ECD–TMD chimera, sequence (Q17328 whole entry, looked up, change not shown, the tested form may be a part): as the sequence (Q17328 whole entry, looked up, change not shown, the tested form may be a part) above

Row | Structure (SMILES) | Unlabeled-ligand nH (Hill coefficient, competition) (human α7-AChR) | IC50 (human α7-AChR) [µM] | Unlabeled-ligand nH (Hill coefficient, competition) [1] | IC50 [2] | Unlabeled-ligand nH (Hill coefficient, competition) [3] | IC50 ([3]; Unlabeled-ligand half-competition concentration) | IC50 [4] [µM] | Unlabeled-ligand nH (Hill coefficient, competition) [4] | difference between closed-state affinities of the chicken and human α7-AChR ECDs [4] [fold] | Hill coefficient, individual curve fitted separately (human α7-AChR)
1 | C[N+](C)(C)CCO [Choline, choline] | 1.28 ± 0.08 | 204 ± 16 | – | – | – | – | – | – | – | –
2 | CCN1C[C@]2(COC(=O)c3ccccc3N3C(=O)C[C@H](C)C3=O)CC[C@H](OC)[C@@]34[C@@H]5C[C@H]6[C@H](OC)[C@@H]5[C@](O)(C[C@@H]6OC)[C@@](O)([C@@H](OC)[C@H]23)[C@@H]14 [MLA, methyllycaconitine] | 0.95 ± 0.05 | 0.0889 ± 0.00854 | 1.04 ± 0.08 | 0.032 µM and 0.0325 µM | 1.01 ± 0.05 | 0.068 µM and 0.0683 µM | 0.0049 ± 0.00052 | 0.990 ± 0.07 | ~14 | –
3 | CN1CCC[C@H]1c1cccnc1 [Nicotine, nicotine] | 1.41 ± 0.06 | – | – | – | 1.08 ± 0.06 | – | 3.68 ± 0.11 | 1.80 ± 0.07 | – | 1.50 ± 0.001 and 1.28 ± 0.001 and 1.42 ± 0.13
